The target in data set [1] is T1, MOR (Homo sapiens, UniProt P35372). Nature of the data set: cell-based. Also on record: host or cells: CHO-K1 OPRM1 β-arrestin-2 cells. To be noted: for Emax: read-out: % Efficacy (maximum efficacy based on DAMGO maximum stimulation).
Target sequence in this assay (P35372 whole entry): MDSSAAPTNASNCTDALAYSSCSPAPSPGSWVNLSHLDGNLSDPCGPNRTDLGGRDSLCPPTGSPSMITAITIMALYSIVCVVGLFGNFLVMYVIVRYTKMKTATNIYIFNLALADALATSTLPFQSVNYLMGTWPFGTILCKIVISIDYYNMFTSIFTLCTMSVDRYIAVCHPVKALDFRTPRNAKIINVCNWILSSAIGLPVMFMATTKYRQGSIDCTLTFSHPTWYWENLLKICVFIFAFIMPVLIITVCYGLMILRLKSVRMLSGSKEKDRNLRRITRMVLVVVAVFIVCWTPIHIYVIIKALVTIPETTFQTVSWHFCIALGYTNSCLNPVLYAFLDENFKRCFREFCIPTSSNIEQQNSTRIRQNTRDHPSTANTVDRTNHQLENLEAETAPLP
Target sequence in this assay (P32121 whole entry partner): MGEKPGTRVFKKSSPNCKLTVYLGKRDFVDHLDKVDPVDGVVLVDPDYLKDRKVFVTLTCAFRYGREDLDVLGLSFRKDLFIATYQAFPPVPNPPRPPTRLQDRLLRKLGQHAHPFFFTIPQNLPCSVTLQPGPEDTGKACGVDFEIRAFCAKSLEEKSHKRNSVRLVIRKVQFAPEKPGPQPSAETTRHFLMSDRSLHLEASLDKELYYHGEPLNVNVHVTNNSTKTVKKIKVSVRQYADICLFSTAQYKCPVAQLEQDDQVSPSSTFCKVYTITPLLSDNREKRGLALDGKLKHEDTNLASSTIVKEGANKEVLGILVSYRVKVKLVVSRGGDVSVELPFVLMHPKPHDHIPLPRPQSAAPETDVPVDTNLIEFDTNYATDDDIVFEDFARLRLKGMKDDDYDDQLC
Data set [2] has as its target T1, MOR. Nature of the data set: cell-based. The class given is cell-based. Also on record: expressed in transfected cells; host or cells: CHO cells stably expressing MOR. To be noted: for MOR potency relative to kurkinorin: cAMP assay, Table 1.
Target sequence in this assay (P35372 whole entry): as the sequence (P35372 whole entry) above
The subject of data set [3] is mice. Nature of the data set: hot water tail-flick tolerance evaluation. The class given is in vivo. Particulars: daily i.p. for 9 days, 10 mg/kg morphine or 5 mg/kg compound 3.46, latency 30 min after dose.
Data set [4] deals with mice. Nature of the data set: accelerating rotarod performance assay. To be noted: preliminary data, compared to morphine. For orientation: The rotarod test checks motor coordination on a turning rod.
[5] abbreviates: CHO cells expressing MOR, read-out: EC50 (inhibition of cAMP accumulation).

Where two headings read alike, the source gives them in different places.

With `COC(=O)[C@@H]1C=C(OC(=O)c2cccc(C(N)=O)c2)C(=O)[C@H]2[C@@]1(C)CC[C@H]1C(=O)O[C@H](c3ccoc3)C[C@]21C`, the concentration for a half-maximal effect (EC50) (usually the concentration needed to bring the measured effect to its halfway point) in data set [1] is above 25000 nM; in data set [2] it was above 10000 nM. Besides, the Emax in data set [1] and in data set [2] (CHO) was 0% in each case.
Consider `COC(=O)[C@@H]1C=C(OC(=O)c2ccc(CO)cc2)C(=O)[C@H]2[C@@]1(C)CC[C@H]1C(=O)O[C@H](c3ccoc3)C[C@]21C` [Entry 3, Methyl (2S,4aR,6aR,7R,10aR,10bR)-2-(furan-3-yl)-9-((4-(hydroxymethyl)benzoyl)oxy)-6a,10b-dimethyl-4,10-dioxo-1,4,4a,5,6,6a,7,10,10a,10b-decahydro-2H-benzo[f]isochromene-7-carboxylate], for which the melting point (as a rule, the temperature of the solid-liquid transition) was in the range of 115 to 118 °C. In addition, the “antinociceptive effects (% maximal possible effect) on daily administration” value in data set [3] is recorded as “maintained antinociceptive efficacy from days 1-9”. Also, the “effects on motor coordination” value in data set [4] is given as “significantly less effects on motor coordination than morphine”. In data set [1], the “Bias Factor” value was determined as 0.14; the midpoint of the response, the EC50, lay at 14 nM; the Emax is 81%. Moreover, the EC50 in data set [2] (setting [5]) is 0.03 ± 0.01 nM. In addition, the “MOR potency relative to kurkinorin” value in data set [2] is “about two orders of magnitude more potent than kurkinorin”.
Take `COCc1ccc(C(=O)OC2=C[C@@H](C(=O)OC)[C@]3(C)CC[C@H]4C(=O)O[C@H](c5ccoc5)C[C@]4(C)[C@H]3C2=O)cc1` [Entry 5, Methyl (2S,4aR,6aR,7R,10aR,10bR)-2-(furan-3-yl)-9-((4-(methoxymethyl)benzoyl)oxy)-6a,10b-dimethyl-4,10-dioxo-1,4,4a,5,6,6a,7,10,10a,10b-decahydro-2H-benzo[f]isochromene-7-carboxylate]: in data set [1], the “Bias Factor” value is on record as 1.98; the midpoint of the response, the EC50, lay at 360 nM; the Emax is 74%. The 50% effective concentration (EC50) in data set [2] (setting [5]) was 13 ± 3 nM.
As to `COC(=O)[C@@H]1C=C(OC(=O)c2cccc(CO)c2)C(=O)[C@H]2[C@@]1(C)CC[C@H]1C(=O)O[C@H](c3ccoc3)C[C@]21C` [Entry 4, Methyl (2S,4aR,6aR,7R,10aR,10bR)-2-(furan-3-yl)-9-((3-(hydroxymethyl)benzoyl)oxy)-6a,10b-dimethyl-4,10-dioxo-1,4,4a,5,6,6a,7,10,10a,10b-decahydro-2H-benzo[f]isochromene-7-carboxylate], the melting point fell in the range of 104 to 106 °C. Also, in data set [1], the “Bias Factor” value is 0.87, a half-maximal response (EC50) required 150 nM and the Emax was 75%. In addition, the 50% effective concentration (EC50) in data set [2] (setting [5]) was 2.42 ± 0.07 nM.
As for `COC(=O)[C@@H]1C=C(OC(=O)c2ccc3occc3c2)C(=O)[C@H]2[C@@]1(C)CC[C@H]1C(=O)O[C@H](c3ccoc3)C[C@]21C` [Entry 2, Methyl (2S,4aR,6aR,7R,10aR,10bR)-9-((benzofuran-5-carbonyl)oxy)-2-(furan-3-yl)-6a,10b-dimethyl-4,10-dioxo-1,4,4a,5,6,6a,7,10,10a,10b-decahydro-2H-benzo[f]isochromene-7-carboxylate], in data set [1], the “Bias Factor” value was 1.21, the EC50 amounted to 490 nM and the Emax was 84%. Further, the midpoint of the response in data set [2], the EC50, lay at 9 ± 2 nM.
For `COC(=O)[C@@H]1C=C(OC(=O)c2ccc3c(c2)C(=O)NC3)C(=O)[C@H]2[C@@]1(C)CC[C@H]1C(=O)O[C@H](c3ccoc3)C[C@]21C` [Entry 8, (2S,4aR,6aR,7R,10aR,10bR)-2-(furan-3-yl)-7-(methoxycarbonyl)-6a,10b-dimethyl-4,10-dioxo-1,4,4a,5,6,6a,7,10,10a,10b-decahydro-2H-benzo[f]isochromen-9-yl 3-oxoisoindoline-5-carboxylate], in data set [1], the “Bias Factor” value is listed as 0.65, the EC50 stood at 190 nM and the Emax was 76%. The EC50 in data set [2] (setting [5]) was 2.2 ± 0.2 nM.
Take `COC(=O)[C@@H]1C=C(OC(=O)c2ccc3ccoc3c2)C(=O)[C@H]2[C@@]1(C)CC[C@H]1C(=O)O[C@H](c3ccoc3)C[C@]21C` [Entry 1, Methyl (2S,4aR,6aR,7R,10aR,10bR)-9-((benzofuran-6-carbonyl)oxy)-2-(furan-3-yl)-6a,10b-dimethyl-4,10-dioxo-1,4,4a,5,6,6a,7,10,10a,10b-decahydro-2H-benzo[f]isochromene-7-carboxylate]: in data set [1], the “Bias Factor” value stood at 2.62, the EC50 came out at 40 nM and the Emax was 90%. For the same molecule, the EC50 in data set [2] (setting [5]) stood at 1.5 ± 0.6 nM.
Turning to `COC(=O)[C@@H]1C=C(OC(=O)c2ccc(C(N)=O)cc2)C(=O)[C@H]2[C@@]1(C)CC[C@H]1C(=O)O[C@H](c3ccoc3)C[C@]21C` [Entry 6], in data set [1], the “Bias Factor” value was 1.57, the EC50 came to 10 nM and the Emax is 119%. In addition, in data set [2], a half-maximal effect (EC50) was put at 0.19 ± 0.03 nM and the “MOR potency relative to kurkinorin” value was “almost an order of magnitude more potent than kurkinorin”.
On to `COC(=O)[C@@H]1C=C(OC(=O)c2ccc3c(c2)CNC3=O)C(=O)[C@H]2[C@@]1(C)CC[C@H]1C(=O)O[C@H](c3ccoc3)C[C@]21C` [Entry 9, (2S,4aR,6aR,7R,10aR,10bR)-2-(furan-3-yl)-7-(methoxycarbonyl)-6a,10b-dimethyl-4,10-dioxo-1,4,4a,5,6,6a,7,10,10a,10b-decahydro-2H-benzo[f]isochromen-9-yl 1-oxoisoindoline-5-carboxylate], for which, in data set [1], the “Bias Factor” value was 0.81, the EC50 was determined as 260 nM and the Emax was 88%. Further, in data set [2] (setting [5]), the concentration giving a half-maximal response (EC50) was found to be 3.2 ± 0.7 nM.
For `C[C@@H](NC(=O)[C@@H](N)Cc1ccc(O)cc1)C(=O)NCC(=O)N(C)[C@@H](Cc1ccccc1)C(=O)NCCO` [DAMGO, reference compound], the “Bias Factor” value in data set [1] amounted to 1.0.

The record behind these values is patent US11034679B2 (priority 2017, dated 2021).
